Measurements taken from PMC3695085, “Screening and Improving the Recombinant Nitrilases and Application in Biotransformation of Iminodiacetonitrile to Iminodiacetic Acid” (PLoS ONE, 2013).

Tests used:
Assay type in all cases: biochemical
RjN = target: T1, RjN (Rhodococcus rhodochrous, UniProt Q03217); experiment: GC-FID of ADPN consumed; details: 50 mM ADPN, pH 7.5, 50 mM potassium phosphate, 35 °C, 30 min
T1 construct: gene nitA; full-length, pET-28b(+), His-tag (Ni-NTA), E. coli BL21(DE3)
T1 sequence (Q03217 1-366 limits assumed): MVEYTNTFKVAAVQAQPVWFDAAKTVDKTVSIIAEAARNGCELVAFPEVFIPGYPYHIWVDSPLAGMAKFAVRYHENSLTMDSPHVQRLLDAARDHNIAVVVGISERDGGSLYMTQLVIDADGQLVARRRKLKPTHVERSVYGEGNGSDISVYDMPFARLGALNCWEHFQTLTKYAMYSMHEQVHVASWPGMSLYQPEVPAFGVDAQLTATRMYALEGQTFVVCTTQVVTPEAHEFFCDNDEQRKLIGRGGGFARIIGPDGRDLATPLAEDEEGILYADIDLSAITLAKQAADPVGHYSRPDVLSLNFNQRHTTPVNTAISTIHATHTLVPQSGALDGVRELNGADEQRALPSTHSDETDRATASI

TpN = target: T2, TpN (Thalassiosira pseudonana, UniProt B8C1M9); experiment: GC-FID of ADPN consumed; details: 50 mM ADPN, pH 7.5, 50 mM potassium phosphate, 35 °C, 30 min
T2 construct: gene NIT2; full-length, pET-28b(+), His-tag (Ni-NTA), E. coli BL21(DE3)

GpN = target: T3, GpN (Aeribacillus pallidus, UniProt Q0PIV8); experiment: GC-FID of ADPN consumed; details: pH […] potassium phosphate, […] °C, […] min
T3 construct: full-length, pET-28b(+), His-tag (Ni-NTA), E. coli BL21(DE3)
T3 sequence (Q0PIV8 1-323): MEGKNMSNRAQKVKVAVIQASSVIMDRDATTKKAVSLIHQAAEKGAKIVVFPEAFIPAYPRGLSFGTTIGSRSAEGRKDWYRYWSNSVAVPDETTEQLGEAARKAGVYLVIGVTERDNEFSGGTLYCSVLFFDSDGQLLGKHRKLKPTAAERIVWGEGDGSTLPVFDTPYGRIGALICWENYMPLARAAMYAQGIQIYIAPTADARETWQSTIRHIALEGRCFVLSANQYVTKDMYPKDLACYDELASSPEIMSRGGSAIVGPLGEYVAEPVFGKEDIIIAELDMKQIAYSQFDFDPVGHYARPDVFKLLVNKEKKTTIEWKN

ApN = target: T4, ApN (Arthrobacter pascens, UniProt E1CJF8); experiment: GC-FID of ADPN consumed; details: 50 mM ADPN, pH 7.5, 50 mM potassium phosphate, 35 °C, 30 min
T4 construct: gene inhB; full-length, pET-28b(+), His-tag (Ni-NTA), E. coli BL21(DE3)
T4 sequence (E1CJF8 1-359): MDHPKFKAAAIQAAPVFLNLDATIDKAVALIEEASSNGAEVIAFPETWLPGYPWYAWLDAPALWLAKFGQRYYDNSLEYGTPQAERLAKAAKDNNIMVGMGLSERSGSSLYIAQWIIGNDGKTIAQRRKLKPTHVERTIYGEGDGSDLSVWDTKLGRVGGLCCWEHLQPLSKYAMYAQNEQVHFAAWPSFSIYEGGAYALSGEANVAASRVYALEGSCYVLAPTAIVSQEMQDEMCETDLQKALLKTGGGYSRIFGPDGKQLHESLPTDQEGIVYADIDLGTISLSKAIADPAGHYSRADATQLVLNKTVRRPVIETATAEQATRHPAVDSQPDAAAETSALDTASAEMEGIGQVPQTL

AcN = target: T5, AcN (Acidovorax facilis, UniProt Q1W2L4); experiment: initial velocity, HPLC, Michaelis-Menten fit; details: pH 7.5, 50 mM potassium phosphate, 35 °C; unit printed as mM^−1 (mM meant); 10.5–262.5 mM substrate
T5 construct: gene nitA; full-length, pET-28b(+), His-tag (Ni-NTA), E. coli BL21(DE3); synthesised gene
Excerpt: initial velocity, HPLC, Michaelis-Menten fit on AcN

| SMILES | GC-FID of ADPN consumed (RjN) | GC-FID of ADPN consumed (TpN) | GC-FID of ADPN consumed (GpN) | GC-FID of ADPN consumed (ApN) | Km mM^-1 (AcN) [mM⁻¹] |
| --- | --- | --- | --- | --- | --- |
| N#CCCCCC#N [adiponitrile] | All nitrilases demonstrated ADPN hydrolysis activity | All nitrilases demonstrated ADPN hydrolysis activity | All nitrilases demonstrated ADPN hydrolysis activity | All nitrilases demonstrated ADPN hydrolysis activity | – |
| N#CCNCC#N [iminodiacetonitrile] | – | – | – | – | 0.76 ± 0.02 |
